Data taken from US9738634B2, “Heterocyclic amide compound and herbicide” (SYNGENTA PARTICIPATIONS AG, priority 2013, dated 2017).

How the values were obtained:
Type in all cases: in vivo
Settings in all cases: treatment dosage 320 g/ha
[1] = system: soybean; assay: Test Example 4: foliar treatment, effect on crop; d: soybean
Method in brief: (§1)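 Seeds are spot-sown into sterilized diluvial soil and covered with about 1.5 cm of soil. After 14 days' greenhouse growth at 25 to 30° C, plants are sprayed on stems and leaves with diluted emulsion at the stated g/ha rate, then scored at 3 weeks.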

[2] = system: Indian mallow; assay: Test Example 3: weedkilling efficacy through soil treatment; K: Indian mallow
Method in brief: (§2)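 Crop and weed responses were judged three weeks after a uniform surface spray of the water-diluted emulsion at the given g/ha rate. Seeds sat beneath about 1.5 cm of sterilized diluvial soil, and boxes stood in a greenhouse at 25 to 30° C.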

[3] = system: fig-leafed goosefoot; assay: Test Example 3: weedkilling efficacy through soil treatment; M: fig-leafed goosefoot
Method in brief: as §2

[4] = system: corn; assay: Test Example 4: foliar treatment, effect on crop; c: corn
Method in brief: as §1

[5] = system: fig-leafed goosefoot; assay: Test Example 4: weedkilling efficacy by foliar treatment; M: fig-leafed goosefoot
Method in brief: as §1

[6] = system: redroot pigweed; assay: Test Example 4: weedkilling efficacy by foliar treatment; L: redroot pigweed
Method in brief: as §1

[7] = system: chickweed; assay: Test Example 4: weedkilling efficacy by foliar treatment; N: chickweed
Method in brief: as §1

[8] = system: green foxtail; assay: Test Example 4: weedkilling efficacy by foliar treatment; E: green foxtail
Method in brief: as §1

[9] = system: common wind-grass; assay: Test Example 4: weedkilling efficacy by foliar treatment; J: common wind-grass
Method in brief: as §1

[10] = system: wild oat; assay: Test Example 3: weedkilling efficacy through soil treatment; G: wild oat
Method in brief: as §2

[11] = system: barnyard grass; assay: Test Example 2: weedkilling efficacy, growth period weed treatment in the submerged state; A: barnyard grass
Method in brief: (§3)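 First, alluvial soil in pots is flooded to 4 cm and mixed seed is sown. Next, plants grow in a greenhouse at 25 to 30° C until the 1-2 leaf stage. Then diluted emulsion is applied onto the water surface at the given g/ha rate, and injury is assessed after 3 weeks.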

[12] = system: transplanted rice; assay: Test Example 1: preemergent weed treatment in the submerged state, effect on crop; a: transplanted rice
Method in brief: (§4)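 Alluvial soil in Wagner pots flooded to 4 cm; barnyard grass, bulrush and oval-leafed pondweed seeds sown, then 2.5-leaf rice seedlings transplanted. Same day, emulsified compound diluted in water to set g/ha dosages and applied to water surface; greenhouse 25–30 °C, effect scored by criteria after 3 weeks.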

[13] = system: beet; assay: Test Example 4: foliar treatment, effect on crop; f: beet
Method in brief: as §1

[14] = system: barnyard grass; assay: Test Example 1: weedkilling efficacy, preemergent weed treatment in the submerged state; A: barnyard grass
Method in brief: as §4

[15] = system: barnyard grass; assay: Test Example 3: weedkilling efficacy through soil treatment; F: barnyard grass
Method in brief: as §2

[16] = system: Italian ryegrass; assay: Test Example 4: weedkilling efficacy by foliar treatment; I: Italian ryegrass
Method in brief: as §1

[17] = system: oval-leafed pondweed; assay: Test Example 1: weedkilling efficacy, preemergent weed treatment in the submerged state; C: oval-leafed pondweed
Method in brief: as §4

[18] = system: green foxtail; assay: Test Example 3: weedkilling efficacy through soil treatment; E: green foxtail
Method in brief: as §2

[19] = system: rapeseed; assay: Test Example 4: foliar treatment, effect on crop; g: rapeseed
Method in brief: as §1

[20] = system: black-grass; assay: Test Example 3: weedkilling efficacy through soil treatment; H: black-grass
Method in brief: as §2

[21] = system: rapeseed; assay: Test Example 3: soil treatment, effect on crop; g: rapeseed
Method in brief: as §2

[22] = system: barnyard grass; assay: Test Example 4: weedkilling efficacy by foliar treatment; F: barnyard grass
Method in brief: as §1

[23] = system: oval-leafed pondweed; assay: Test Example 2: weedkilling efficacy, growth period weed treatment in the submerged state; C: oval-leafed pondweed
Method in brief: as §3

[24] = system: soybean; assay: Test Example 3: soil treatment, effect on crop; d: soybean
Method in brief: as §2

[25] = system: wheat; assay: Test Example 3: soil treatment, effect on crop; e: wheat
Method in brief: as §2

[26] = system: bulrush; assay: Test Example 1: weedkilling efficacy, preemergent weed treatment in the submerged state; B: bulrush
Method in brief: as §4

[27] = system: wild oat; assay: Test Example 4: weedkilling efficacy by foliar treatment; G: wild oat
Method in brief: as §1

[28] = system: common wind-grass; assay: Test Example 3: weedkilling efficacy through soil treatment; J: common wind-grass
Method in brief: as §2

[29] = system: birds-eye speedwell; assay: Test Example 4: weedkilling efficacy by foliar treatment; p: birds-eye speedwell
Method in brief: as §1

[30] = system: directly sown rice; assay: Test Example 4: foliar treatment, effect on crop; b: directly sown rice
Method in brief: as §1

[31] = system: redroot pigweed; assay: Test Example 3: weedkilling efficacy through soil treatment; L: redroot pigweed
Method in brief: as §2

[32] = system: birds-eye speedwell; assay: Test Example 3: weedkilling efficacy through soil treatment; p: birds-eye speedwell
Method in brief: as §2

[33] = system: directly sown rice; assay: Test Example 3: soil treatment, effect on crop; b: directly sown rice
Method in brief: as §2

[34] = system: Indian mallow; assay: Test Example 4: weedkilling efficacy by foliar treatment; K: Indian mallow
Method in brief: as §1

[35] = system: corn; assay: Test Example 3: soil treatment, effect on crop; c: corn
Method in brief: as §2

[36] = system: chickweed; assay: Test Example 3: weedkilling efficacy through soil treatment; N: chickweed
Method in brief: as §2

[37] = system: bulrush; assay: Test Example 2: weedkilling efficacy, growth period weed treatment in the submerged state; B: bulrush
Method in brief: as §3

[38] = system: catchweed; assay: Test Example 4: weedkilling efficacy by foliar treatment; O: catchweed
Method in brief: as §1

[39] = system: crabgrass; assay: Test Example 3: weedkilling efficacy through soil treatment; D: crabgrass
Method in brief: as §2

[40] = system: Italian ryegrass; assay: Test Example 3: weedkilling efficacy through soil treatment; I: Italian ryegrass
Method in brief: as §2

[41] = system: wheat; assay: Test Example 4: foliar treatment, effect on crop; e: wheat
Method in brief: as §1

[42] = system: black-grass; assay: Test Example 4: weedkilling efficacy by foliar treatment; H: black-grass
Method in brief: as §1

[43] = system: crabgrass; assay: Test Example 4: weedkilling efficacy by foliar treatment; D: crabgrass
Method in brief: as §1

[44] = system: beet; assay: Test Example 3: soil treatment, effect on crop; f: beet
Method in brief: as §2

With COc1cc(F)nc(NC(=O)C(C)(C)N2COC(C)=C(c3ccccc3)C2=O)c1 [B-2-41] the “d (soybean) effect on crop grade” value [1] was 4 (weed kill ratio 70% or more, less than 90%), the “K (Indian mallow) weedkilling efficacy grade” value [2] was 2 (weed kill ratio 20% or more, less than 40%) and the “M (fig-leafed goosefoot) weedkilling efficacy grade” value [3] was 4 (weed kill ratio 70% or more, less than 90%). The “c (corn) effect on crop grade” value [4] was 4 (weed kill ratio 70% or more, less than 90%), the “M (fig-leafed goosefoot) weedkilling efficacy grade” value [5] was 3 (weed kill ratio 40% or more, less than 70%) and the “L (redroot pigweed) weedkilling efficacy grade” value [6] was 4 (weed kill ratio 70% or more, less than 90%). For the same compound, the “N (chickweed) weedkilling efficacy grade” value [7] was 4 (weed kill ratio 70% or more, less than 90%), the “E (green foxtail) weedkilling efficacy grade” value [8] was 5 (weed kill ratio 90% or more, (practically complete withering)) and the “J (common wind-grass) weedkilling efficacy grade” value [9] was 5 (weed kill ratio 90% or more, (practically complete withering)). For the same compound, the “G (wild oat) weedkilling efficacy grade” value [10] was 3 (weed kill ratio 40% or more, less than 70%), the “A (barnyard grass) weedkilling efficacy grade” value [11] was 5 (weed kill ratio 90% or more, (practically complete withering)) and the “a (transplanted rice) effect on crop grade” value [12] was 3 (weed kill ratio 40% or more, less than 70%). For the same compound, the “f (beet) effect on crop grade” value [13] was 4 (weed kill ratio 70% or more, less than 90%), the “A (barnyard grass) weedkilling efficacy grade” value [14] was 5 (weed kill ratio 90% or more, (practically complete withering)) and the “F (barnyard grass) weedkilling efficacy grade” value [15] was 5 (weed kill ratio 90% or more, (practically complete withering)). The “I (Italian ryegrass) weedkilling efficacy grade” value [16] was 5 (weed kill ratio 90% or more, (practically complete withering)), the “C (oval-leafed pondweed) weedkilling efficacy grade” value [17] was 5 (weed kill ratio 90% or more, (practically complete withering)) and the “E (green foxtail) weedkilling efficacy grade” value [18] was 5 (weed kill ratio 90% or more, (practically complete withering)). The “g (rapeseed) effect on crop grade” value [19] was 5 (weed kill ratio 90% or more, (practically complete withering)), the “H (black-grass) weedkilling efficacy grade” value [20] was 5 (weed kill ratio 90% or more, (practically complete withering)) and the “g (rapeseed) effect on crop grade” value [21] was 4 (weed kill ratio 70% or more, less than 90%). The “F (barnyard grass) weedkilling efficacy grade” value [22] was 5 (weed kill ratio 90% or more, (practically complete withering)), the “C (oval-leafed pondweed) weedkilling efficacy grade” value [23] was 5 (weed kill ratio 90% or more, (practically complete withering)) and the “d (soybean) effect on crop grade” value [24] was 0 (weed kill ratio 5% or less (practically no effect)). For the same compound, the “e (wheat) effect on crop grade” value [25] was 0 (weed kill ratio 5% or less (practically no effect)), the “B (bulrush) weedkilling efficacy grade” value [26] was 5 (weed kill ratio 90% or more, (practically complete withering)) and the “G (wild oat) weedkilling efficacy grade” value [27] was 3 (weed kill ratio 40% or more, less than 70%). For the same compound, the “J (common wind-grass) weedkilling efficacy grade” value [28] was 5 (weed kill ratio 90% or more, (practically complete withering)), the “P (birds-eye speedwell) weedkilling efficacy grade” value [29] was 5 (weed kill ratio 90% or more, (practically complete withering)) and the “b (directly sown rice) effect on crop grade” value [30] was 4 (weed kill ratio 70% or more, less than 90%). The “L (redroot pigweed) weedkilling efficacy grade” value [31] was 3 (weed kill ratio 40% or more, less than 70%), the “P (birds-eye speedwell) weedkilling efficacy grade” value [32] was 5 (weed kill ratio 90% or more, (practically complete withering)) and the “b (directly sown rice) effect on crop grade” value [33] was 4 (weed kill ratio 70% or more, less than 90%). The “K (Indian mallow) weedkilling efficacy grade” value [34] was 5 (weed kill ratio 90% or more, (practically complete withering)), the “c (corn) effect on crop grade” value [35] was 0 (weed kill ratio 5% or less (practically no effect)) and the “N (chickweed) weedkilling efficacy grade” value [36] was 4 (weed kill ratio 70% or more, less than 90%). For the same compound, the “B (bulrush) weedkilling efficacy grade” value [37] was 5 (weed kill ratio 90% or more, (practically complete withering)), the “O (catchweed) weedkilling efficacy grade” value [38] was 5 (weed kill ratio 90% or more, (practically complete withering)) and the “D (crabgrass) weedkilling efficacy grade” value [39] was 5 (weed kill ratio 90% or more, (practically complete withering)). The “I (Italian ryegrass) weedkilling efficacy grade” value [40] was 5 (weed kill ratio 90% or more, (practically complete withering)), the “e (wheat) effect on crop grade” value [41] was 0 (weed kill ratio 5% or less (practically no effect)) and the “H (black-grass) weedkilling efficacy grade” value [42] was 5 (weed kill ratio 90% or more, (practically complete withering)). The “D (crabgrass) weedkilling efficacy grade” value [43] was 5 (weed kill ratio 90% or more, (practically complete withering)) and the “f (beet) effect on crop grade” value [44] was 3 (weed kill ratio 40% or more, less than 70%).
